{"source": "patent US11197865B2", "about": "“Applications for promethazine in preparing anti-liver cancer and/or colon cancer and/or lung cancer products” (SHANGHAI JIAO TONG UNIVERSITY, priority 2015, dated 2021)", "type_in_all_cases": "cell-based", "key": {"[1]": {"tested_on": "NCI-H661 large-cell lung cancer cells", "assay": "CellTiter-Glo luminescent cell viability assay, NCI-H661 large-cell lung cancer cells", "details": "Homo sapiens, 72 hours"}, "[2]": {"tested_on": "HUH-7 liver cancer cells", "assay": "CellTiter-Glo luminescent cell viability assay, HUH-7 liver cancer cells", "details": "Homo sapiens, 72 hours", "from_the_text": "(§1) In example 1, CELLTITER-GLO was used to test promethazine against liver cancer and/or colon cancer. n) HUH-7 cells and LoVo cells were handled as described above, and HUH-7 96-well cell culture plates and LoVo 96-well cell culture plates were obtained, respectively. The complete medium for HUH-7 cells was DMEM (a live product), Cat #11995081, with a cells/well density of 6000. 2. […] The final concentrations (μM) of the analyte drug in wells 2-10 in FIG. 1 are, in order: 100, 31.64557, 10.01442, 3.16912, 1.002886, 0.317369, 0.100433, 0.031783, 0.010058; B. CELLTITER-GLO Luminescent Cell Viability Assay System a) Before testing, the HUH-7 96-well drug screening plate and the LoVo 96-well drug screening plate described in 3 above were stabilized to room temperature for 20-30 minutes. c) 100 μl of CellTiter-Glo reagent (prepared as described in 1 above) was added to all drug screening plates and mixed evenly. d) It was thoroughly oscillated in a 96-well microplate oscillator for 2 minutes to allow the cells to undergo full lysis. e) It was stored away from light at room temperature for 15 minutes before carrying out luminescent signal detection to ensure signal stability. f) An EnSpire multi-function plate reader was used at 570 nm to read the luminescent signals. g) Data was processed and analyzed."}, "[3]": {"tested_on": "LoVo colon cancer cells", "assay": "CellTiter-Glo luminescent cell viability assay, LoVo colon cancer cells", "details": "Homo sapiens, 72 hours", "from_the_text": "as §1, with “for LoVo” for “for HUH-7”, “of 8000.” for “of 6000.”"}, "[4]": {"tested_on": "SKOV-3 human ovarian cancer cells", "assay": "CellTiter-Glo luminescent cell viability assay, SKOV-3 ovarian cancer cells", "details": "SK-OV-3, SKOV-3 cells, 72 hours"}, "[5]": {"tested_on": "NCI-H2141 lung cancer cells", "assay": "CellTiter-Glo luminescent cell viability assay, NCI-H2141 lung cancer cells", "details": "72 hours"}}, "data": [{"smiles": "CC(CN1c2ccccc2Sc2ccccc21)N(C)C", "note": "(stereo not shown) [promethazine]", "values": [{"measurement": "IC50", "setting": "[1]", "result": "≥ 100", "unit": "µM"}, {"measurement": "EC50", "setting": "[2]; FIG. 2, liver cancer (HUH-7)", "result": 42, "unit": "µM"}, {"measurement": "IC50", "setting": "[2]; HUH-7 cells", "result": 31.4, "unit": "µM"}, {"measurement": "IC50", "setting": "[3]", "result": 33.5, "unit": "µM"}, {"measurement": "IC50", "setting": "[4]", "result": "≥ 100", "unit": "µM"}, {"measurement": "EC50", "setting": "[5]; FIG. 4, lung cancer (NCI-H2141)", "result": 33.9, "unit": "µM"}, {"measurement": "IC50", "setting": "[5]; NCI-H2141 cells", "result": 34.6, "unit": "µM"}]}]}
